These results are taken from patent US11833139B2 (priority 2019, dated 2023).

Converted amounts (≈) assume the structure as drawn. Like-named read-outs stand apart in the source and are kept apart here.

A word on the MIC: it is the lowest concentration that inhibits growth of the organism.

The subject of assay [1] is A. baumannii UNT091. The assay is described as follows: MIC by broth microdilution (CLSI), carbapenem-resistant clinical isolate UNT091. The format is cell-based, Acinetobacter baumannii. How it is done: (§1) Two A. baumannii isolates were used in this example: HUMC1 (BV374) (Spellberg/Luna Laboratory, University of Southern California, Los Angeles, Calif.) and UNT091-1 (BV378) (UNT Health Science Center, Fort Worth, Tex.). The HUMC1 isolate is a hyper-virulent drug-resistant clinical strain isolated from a blood-stream infection. […] The isolates were stored at −80° C. as 20% (v/v) glycerol cultures.
(§2) MICs were determined by the broth microdilution method following the guidelines of the Clinical Laboratory Standards Institute (CLSI) using RPMI supplemented with […] cationic-adjusted Muller Hinton broth (CA-MHB) as assay medium. To prepare the bacterial inocula, 3-5 colonies of bacterial strains from over-night growth on ChromAgar orientation plates (CHROMagar Cat. No. RT412) were suspended in 5 mL saline. The turbidity of the bacterial suspension was adjusted to 0.5 McFarland units (equal to an optical density at 610 nm (OD610) to 0.08-0.1). This suspension was diluted 200-fold in RPMI supplemented with 10% (v/v) FCS to reach a final concentration of […] colony forming units (CFU)/mL and was used to inoculate the microtiter plates.
(§3) Serial 2-fold dilutions of the antibiotics were prepared in a separate 96-well plate polypropylene U-bottom plate (Ratiolab Cat. No. 6018111) in RPMI supplemented with 10% (v/v) FCS at 10-fold of the final test concentrations and 10 μl of the dilutions were transferred to new 96-well polystyrene U-bottom microtiter plates with a parafilm plate cover.
(§4) The plates were then inoculated with 90 μL per well of the prepared bacterial suspensions in using a multichannel pipette (Eppendorf), with the first column containing 4 wells each for growth control (no antibiotic). […] The MIC was recorded as the lowest concentration of the compound that inhibited bacterial growth by visual inspection. MICs were determined at least in duplicates and in the case of variations, the higher values are provided.

In assay [2] the test system is A. baumannii HUMC1. Put plainly: MIC by broth microdilution (CLSI), carbapenem-resistant clinical isolate HUMC1. The assay is classed as cell-based, Acinetobacter baumannii. How it is done:
as §1, §2, §3, §4

Assay [3] deals with A. baumannii ACC00445. Put plainly: Neutropenic sepsis mouse model (CD-1 mice, IP infection). The format is in vivo. The note with it: IV at 1 h and 5 h post-infection, 10 mg/kg. From the text: The CD-1 mice were IP infected with A. baumannii ACC00445 strain in the presence of […].
Where [4] appears, read: Acinetobacter baumannii, UNT091, UNT091, CA-MHB (Table 1), read-out: MIC.
Where [5] appears, read: Acinetobacter baumannii, UNT091, UNT091, RPMI plus 10% FCS (Table 1), read-out: MIC.
The mark [6] stands for this setting: Acinetobacter baumannii, HUMC1, HUMC1, CA-MHB (Table 1), read-out: MIC.
The mark [7] stands for this setting: Acinetobacter baumannii, HUMC1, HUMC1, RPMI plus 10% FCS (Table 1), read-out: MIC.

As for `CO/N=C(\C(=O)N[C@@H]1C(=O)N2C(C(=O)O)=C(COC(C)=O)CS[C@H]12)c1csc(N)n1` [cefotaxime], the MIC in assay [1] (setting [4]), in assay [1] (setting [5]), in assay [2] (setting [6]) and in assay [2] (setting [7]) was greater than 64 µg/mL each time.

On to `CO[C@H]1/C=C/O[C@@]2(C)Oc3c(C)c(O)c4c(O)c(c(/C=N/N5CCN(C)CC5)c(O)c4c3C2=O)NC(=O)/C(C)=C\C=C\[C@H](C)[C@H](O)[C@@H](C)[C@@H](O)[C@@H](C)[C@H](OC(C)=O)[C@@H]1C` [rifampin], for which the MIC in assay [1] (setting [4]) amounted to 8 µg/mL (≈ 9.72 µM); in assay [1] (setting [5]) it was 16 µg/mL; in assay [1] (Acinetobacter baumannii, UNT091, UNT091 parental strain, RPMI + 10% FCS (Table 2), read-out: MIC) it was 2 µg/mL; in assay [2] (setting [6]) it was 16 µg/mL (≈ 19.4 µM); in assay [2] (setting [7]) it was 16 µg/mL; in assay [2] (Acinetobacter baumannii, HUMC1, HUMC1 parental strain, RPMI + 10% FCS (Table 2), read-out: MIC), 32 µg/mL. In assay [3], the protection against sepsis result is “does not”.

In the case of `C[C@@H](O)[C@H]1C(=O)N2C(C(=O)O)=C(S[C@@H]3CN[C@H](C(=O)N(C)C)C3)[C@H](C)[C@H]12` [meropenem], the MIC in assay [1] (setting [4]), in assay [1] (setting [5]), in assay [2] (setting [6]) and in assay [2] (setting [7]) was greater than 16 µg/mL in each case.

Take gentamicin: the minimum inhibitory concentration (MIC) in assay [1] (UNT091, CA-MHB (Table 1)) was greater than 16 µg/mL; in assay [1] (UNT091, RPMI plus 10% FCS (Table 1)), greater than 16 µg/mL; in assay [2] (HUMC1, CA-MHB (Table 1)), greater than 16 µg/mL; in assay [2] (HUMC1, RPMI plus 10% FCS (Table 1)), greater than 16 µg/mL.
